The values below come from ChEMBL document CHEMBL1764973 (J Med Chem, 2011).

Assay [1] can be described thus: Binding affinity to benzodiazepine binding site of GABAA receptor.
Another assay concerns the target Cannabinoid receptor 1 (Homo sapiens, UniProt P21554). Kind of assay: Displacement of [3H]CP55940 from CB1 receptor.
For the next assay, the target named is Cannabinoid receptor 2 (Homo sapiens, UniProt P34972). The assay can be described thus: Displacement of [3H]CP55940 from CB2 receptor.
Sequence of Cannabinoid receptor 2 (P34972 whole entry): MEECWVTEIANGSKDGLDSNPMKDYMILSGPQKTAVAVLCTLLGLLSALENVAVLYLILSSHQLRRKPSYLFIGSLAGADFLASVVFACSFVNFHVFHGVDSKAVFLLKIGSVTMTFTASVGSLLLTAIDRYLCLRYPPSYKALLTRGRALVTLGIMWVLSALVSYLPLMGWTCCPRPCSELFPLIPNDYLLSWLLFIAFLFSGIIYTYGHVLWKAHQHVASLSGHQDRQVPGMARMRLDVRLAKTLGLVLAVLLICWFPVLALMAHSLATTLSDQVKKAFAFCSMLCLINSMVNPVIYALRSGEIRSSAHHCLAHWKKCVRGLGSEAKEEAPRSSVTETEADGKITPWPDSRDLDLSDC
The target of assay [2] is T1, 5-hydroxytryptamine receptor 1D (Homo sapiens, UniProt P28221). The assay can be described thus: Binding affinity to 5HT1D receptor by radioligand binding assay.
T1 sequence (P28221 whole entry): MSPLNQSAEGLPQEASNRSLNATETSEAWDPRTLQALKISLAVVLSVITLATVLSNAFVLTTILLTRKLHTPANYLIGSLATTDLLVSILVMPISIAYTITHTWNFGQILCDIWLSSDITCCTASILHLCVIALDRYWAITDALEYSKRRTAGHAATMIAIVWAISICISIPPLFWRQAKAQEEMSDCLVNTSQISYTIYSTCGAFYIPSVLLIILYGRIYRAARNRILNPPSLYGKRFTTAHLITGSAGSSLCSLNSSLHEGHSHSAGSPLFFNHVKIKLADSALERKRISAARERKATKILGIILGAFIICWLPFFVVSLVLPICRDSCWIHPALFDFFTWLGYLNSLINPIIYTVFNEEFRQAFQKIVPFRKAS
Another assay concerns the target D(1B) dopamine receptor (Homo sapiens, UniProt P21918). The assay can be described thus: Binding affinity to opamine D5 receptor by radioligand binding assay.
The target of assay [3] is Kappa-type opioid receptor (Homo sapiens, UniProt P41145). The assay can be described thus: Binding affinity to kappa opioid receptor by radioligand binding assay.
Sequence of Kappa-type opioid receptor (P41145 whole entry): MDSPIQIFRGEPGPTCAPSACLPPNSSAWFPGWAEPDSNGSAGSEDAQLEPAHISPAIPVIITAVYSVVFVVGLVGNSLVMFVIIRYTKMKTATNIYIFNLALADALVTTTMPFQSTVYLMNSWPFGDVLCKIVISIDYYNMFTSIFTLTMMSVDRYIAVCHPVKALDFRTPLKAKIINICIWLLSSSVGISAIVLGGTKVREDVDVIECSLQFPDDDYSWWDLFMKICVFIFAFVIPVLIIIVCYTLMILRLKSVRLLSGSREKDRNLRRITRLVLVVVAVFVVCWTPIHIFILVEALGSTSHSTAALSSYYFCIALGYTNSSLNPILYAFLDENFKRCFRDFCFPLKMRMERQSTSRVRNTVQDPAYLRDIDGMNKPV
The target of a further assay is Translocator protein (Rattus norvegicus, UniProt P16257).
Sequence of Translocator protein (P16257 whole entry, looked up): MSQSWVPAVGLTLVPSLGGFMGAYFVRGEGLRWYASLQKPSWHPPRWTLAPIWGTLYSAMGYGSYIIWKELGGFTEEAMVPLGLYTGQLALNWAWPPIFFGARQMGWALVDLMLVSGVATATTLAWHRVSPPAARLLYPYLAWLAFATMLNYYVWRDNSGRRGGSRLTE
The target in assay [4] is Muscarinic acetylcholine receptor M5 (Homo sapiens) (UniProt P08912). The conditions noted are these: 10 uM.
The target in assay [5] is Muscarinic acetylcholine receptor M4 (Homo sapiens) (UniProt P08173). The following applies: 10 uM.
The target of assay [6] is Muscarinic acetylcholine receptor M3 (Homo sapiens) (UniProt P20309). The conditions noted are these: 10 uM.
Assay [7] deals with Muscarinic acetylcholine receptor M1 (Homo sapiens) (UniProt P11229). The conditions noted are these: 10 uM.
Assay [8] addresses Muscarinic acetylcholine receptor M2 (Homo sapiens) (UniProt P08172). The following applies: 10 uM.
For assay [9], the target named is 5-hydroxytryptamine receptor 1A (Homo sapiens) (UniProt P08908). The conditions noted are these: 10 uM.
Assay [10] concerns the target 5-hydroxytryptamine receptor 1E (Homo sapiens) (UniProt P28566). The following applies: 10 uM.
The target of assay [11] is T1, 5-hydroxytryptamine receptor 1D. The following applies: 10 uM.
Assay [12] concerns the target 5-hydroxytryptamine receptor 2A (Homo sapiens) (UniProt P28223). The conditions noted are these: 10 uM.
The target in assay [13] is 5-hydroxytryptamine receptor 2B (Homo sapiens) (UniProt P41595). The conditions noted are these: 10 uM.
For assay [14], the target named is 5-hydroxytryptamine receptor 2C (Homo sapiens) (UniProt P28335). The following applies: 10 uM.
In assay [15] the target is 5-hydroxytryptamine receptor 3A (Homo sapiens) (UniProt P46098). The following applies: 10 uM.
For assay [16], the target named is 5-hydroxytryptamine receptor 5A (Homo sapiens) (UniProt P47898). The conditions noted are these: 10 uM.
The target of assay [17] is 5-hydroxytryptamine receptor 6 (Homo sapiens) (UniProt P50406). The conditions noted are these: 10 uM.
In assay [18] the target is 5-hydroxytryptamine receptor 7 (Homo sapiens) (UniProt P34969). The following applies: 10 uM.
The target in assay [19] is Alpha-1A adrenergic receptor (Homo sapiens) (UniProt P35348). The conditions noted are these: 10 uM.
Sequence of Alpha-1A adrenergic receptor (Homo sapiens) (P35348 whole entry): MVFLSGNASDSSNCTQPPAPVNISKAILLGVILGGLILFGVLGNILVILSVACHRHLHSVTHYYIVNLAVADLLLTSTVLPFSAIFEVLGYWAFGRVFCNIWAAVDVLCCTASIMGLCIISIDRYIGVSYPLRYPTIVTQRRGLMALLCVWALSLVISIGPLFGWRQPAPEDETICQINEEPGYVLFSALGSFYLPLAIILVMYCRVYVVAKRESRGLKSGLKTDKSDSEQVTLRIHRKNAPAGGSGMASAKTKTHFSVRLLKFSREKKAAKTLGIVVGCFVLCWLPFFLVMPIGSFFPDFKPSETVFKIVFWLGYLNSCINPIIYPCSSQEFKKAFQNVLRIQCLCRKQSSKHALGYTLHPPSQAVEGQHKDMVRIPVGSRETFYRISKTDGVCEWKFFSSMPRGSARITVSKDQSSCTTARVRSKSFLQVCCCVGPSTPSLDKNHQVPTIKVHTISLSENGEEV
Assay [20] concerns the target Alpha-1B adrenergic receptor (Homo sapiens) (UniProt P35368). The conditions noted are these: 10 uM.
Assay [21] addresses Alpha-2A adrenergic receptor (Homo sapiens) (UniProt P08913). The following applies: 10 uM.
Assay [22] addresses Alpha-2B adrenergic receptor (Homo sapiens) (UniProt P18089). The conditions noted are these: 10 uM.
Assay [23] deals with Alpha-2C adrenergic receptor (Homo sapiens) (UniProt P18825). The following applies: 10 uM.
In assay [24] the target is Beta-1 adrenergic receptor (Homo sapiens) (UniProt P08588). The following applies: 10 uM.
Assay [25] has as its target Beta-3 adrenergic receptor (Homo sapiens) (UniProt P13945). The following applies: 10 uM.
In assay [26] the target is D(1A) dopamine receptor (Homo sapiens) (UniProt P21728). The following applies: 10 uM.
Assay [27] concerns the target D(2) dopamine receptor (Homo sapiens) (UniProt P14416). The following applies: 10 uM.
Assay [28] has as its target D(3) dopamine receptor (Homo sapiens) (UniProt P35462). The following applies: 10 uM.
In assay [29] the target is D(4) dopamine receptor (Homo sapiens) (UniProt P21917). The conditions noted are these: 10 uM.
The target of assay [30] is Sodium-dependent dopamine transporter (Homo sapiens) (UniProt Q01959). The conditions noted are these: 10 uM.
Assay [31] concerns the target Delta-type opioid receptor (Homo sapiens) (UniProt P41143). The conditions noted are these: 10 uM.
The target in assay [32] is Histamine H1 receptor (Homo sapiens) (UniProt P35367). The conditions noted are these: 10 uM.
Assay [33] deals with Histamine H2 receptor (Homo sapiens) (UniProt P25021). The conditions noted are these: 10 uM.
The target of assay [34] is Histamine H3 receptor (Homo sapiens) (UniProt Q9Y5N1). The conditions noted are these: 10 uM.
For assay [35], the target named is Histamine H4 receptor (Homo sapiens) (UniProt Q9H3N8). The conditions noted are these: 10 uM.
Sequence of Histamine H4 receptor (Homo sapiens) (Q9H3N8 whole entry): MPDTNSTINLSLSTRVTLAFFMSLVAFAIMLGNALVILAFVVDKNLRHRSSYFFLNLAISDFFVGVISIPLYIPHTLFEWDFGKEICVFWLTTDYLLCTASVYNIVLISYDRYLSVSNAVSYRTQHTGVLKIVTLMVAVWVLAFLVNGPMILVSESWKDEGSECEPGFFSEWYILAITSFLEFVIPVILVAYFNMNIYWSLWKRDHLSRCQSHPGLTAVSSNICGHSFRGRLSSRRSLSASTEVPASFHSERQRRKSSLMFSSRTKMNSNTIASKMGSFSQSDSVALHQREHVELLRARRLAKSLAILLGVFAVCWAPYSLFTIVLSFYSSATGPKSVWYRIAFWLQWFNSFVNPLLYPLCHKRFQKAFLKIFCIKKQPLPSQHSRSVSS
In assay [36] the target is Mu-type opioid receptor (Homo sapiens) (UniProt P35372). The following applies: 10 uM.
For assay [37], the target named is Sodium-dependent noradrenaline transporter (Homo sapiens) (UniProt P23975). The conditions noted are these: 10 uM.
Assay [38] deals with Sodium-dependent serotonin transporter (Homo sapiens) (UniProt P31645). The conditions noted are these: 10 uM.
The target in assay [39] is Sigma non-opioid intracellular receptor 1 (Homo sapiens) (UniProt Q99720). The following applies: 10 uM.
Assay [40] has as its target Vasopressin V1a receptor (Homo sapiens) (UniProt P37288). The following applies: 10 uM.
In assay [41] the target is Vasopressin V1b receptor (Homo sapiens) (UniProt P47901). The following applies: 10 uM.
Sequence of Vasopressin V1b receptor (Homo sapiens) (P47901 whole entry): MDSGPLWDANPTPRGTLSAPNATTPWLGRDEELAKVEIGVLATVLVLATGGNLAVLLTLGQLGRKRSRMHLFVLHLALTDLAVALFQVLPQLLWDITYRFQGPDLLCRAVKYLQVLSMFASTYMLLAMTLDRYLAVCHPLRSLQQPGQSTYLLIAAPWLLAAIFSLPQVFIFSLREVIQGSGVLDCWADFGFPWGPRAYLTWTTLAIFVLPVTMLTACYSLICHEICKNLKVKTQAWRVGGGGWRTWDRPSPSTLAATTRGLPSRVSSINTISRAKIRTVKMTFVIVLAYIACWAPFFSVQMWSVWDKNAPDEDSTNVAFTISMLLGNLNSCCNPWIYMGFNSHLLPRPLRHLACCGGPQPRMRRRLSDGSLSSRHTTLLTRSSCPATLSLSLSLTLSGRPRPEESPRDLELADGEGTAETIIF
In assay [42] the target is Vasopressin V2 receptor (Homo sapiens) (UniProt P30518). The conditions noted are these: 10 uM.

Some results are limits rather than exact numbers.

Sequence of Cannabinoid receptor 1 (P21554 whole entry): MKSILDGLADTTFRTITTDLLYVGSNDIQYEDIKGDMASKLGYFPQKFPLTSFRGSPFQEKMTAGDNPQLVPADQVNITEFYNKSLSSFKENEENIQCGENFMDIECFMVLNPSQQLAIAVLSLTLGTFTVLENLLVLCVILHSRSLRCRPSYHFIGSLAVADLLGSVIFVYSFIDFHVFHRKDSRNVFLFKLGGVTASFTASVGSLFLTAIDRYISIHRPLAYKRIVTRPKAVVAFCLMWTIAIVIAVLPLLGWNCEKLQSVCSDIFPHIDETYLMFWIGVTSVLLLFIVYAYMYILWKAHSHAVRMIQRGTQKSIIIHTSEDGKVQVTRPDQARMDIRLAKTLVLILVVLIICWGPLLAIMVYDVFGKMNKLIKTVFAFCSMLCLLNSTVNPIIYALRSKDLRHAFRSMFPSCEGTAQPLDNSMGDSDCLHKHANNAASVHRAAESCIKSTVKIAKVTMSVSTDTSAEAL
Sequence of D(3) dopamine receptor (Homo sapiens) (P35462 whole entry): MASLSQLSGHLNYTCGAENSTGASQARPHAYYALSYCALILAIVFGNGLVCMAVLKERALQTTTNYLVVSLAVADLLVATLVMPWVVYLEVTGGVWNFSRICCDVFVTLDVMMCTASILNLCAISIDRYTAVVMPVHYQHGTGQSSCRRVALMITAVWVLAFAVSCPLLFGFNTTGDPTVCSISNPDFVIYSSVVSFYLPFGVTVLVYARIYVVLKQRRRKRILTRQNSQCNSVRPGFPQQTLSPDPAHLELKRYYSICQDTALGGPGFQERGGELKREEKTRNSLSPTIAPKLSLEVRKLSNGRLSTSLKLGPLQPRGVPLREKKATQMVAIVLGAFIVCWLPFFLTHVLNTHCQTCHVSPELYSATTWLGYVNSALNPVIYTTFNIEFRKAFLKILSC
Sequence of Alpha-1B adrenergic receptor (Homo sapiens) (P35368 whole entry): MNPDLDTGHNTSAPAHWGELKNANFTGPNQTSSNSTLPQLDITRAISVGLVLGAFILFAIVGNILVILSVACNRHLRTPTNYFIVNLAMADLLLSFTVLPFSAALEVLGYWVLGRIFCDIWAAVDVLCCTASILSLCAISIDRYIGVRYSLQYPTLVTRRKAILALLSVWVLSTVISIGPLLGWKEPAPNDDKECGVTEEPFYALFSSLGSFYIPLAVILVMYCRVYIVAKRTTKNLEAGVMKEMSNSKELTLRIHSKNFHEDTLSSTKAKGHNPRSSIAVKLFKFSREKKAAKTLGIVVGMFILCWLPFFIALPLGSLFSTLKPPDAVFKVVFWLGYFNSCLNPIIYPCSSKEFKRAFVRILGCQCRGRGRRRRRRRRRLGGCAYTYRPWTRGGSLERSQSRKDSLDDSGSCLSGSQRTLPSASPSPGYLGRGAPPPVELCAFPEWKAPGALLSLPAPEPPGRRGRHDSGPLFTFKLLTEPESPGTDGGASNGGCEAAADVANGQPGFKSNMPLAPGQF
Sequence of Beta-3 adrenergic receptor (Homo sapiens) (P13945 whole entry, looked up): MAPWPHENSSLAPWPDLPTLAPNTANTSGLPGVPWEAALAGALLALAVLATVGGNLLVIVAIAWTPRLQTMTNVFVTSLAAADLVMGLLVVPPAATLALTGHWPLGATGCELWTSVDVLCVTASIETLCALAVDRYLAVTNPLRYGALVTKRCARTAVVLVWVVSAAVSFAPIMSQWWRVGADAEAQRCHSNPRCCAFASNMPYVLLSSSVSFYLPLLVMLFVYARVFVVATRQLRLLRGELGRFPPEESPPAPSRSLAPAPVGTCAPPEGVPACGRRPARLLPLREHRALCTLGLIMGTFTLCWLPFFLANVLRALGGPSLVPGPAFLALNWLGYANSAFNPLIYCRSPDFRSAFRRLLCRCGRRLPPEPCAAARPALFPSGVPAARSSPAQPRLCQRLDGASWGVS
Sequence of Alpha-2B adrenergic receptor (Homo sapiens) (P18089 whole entry): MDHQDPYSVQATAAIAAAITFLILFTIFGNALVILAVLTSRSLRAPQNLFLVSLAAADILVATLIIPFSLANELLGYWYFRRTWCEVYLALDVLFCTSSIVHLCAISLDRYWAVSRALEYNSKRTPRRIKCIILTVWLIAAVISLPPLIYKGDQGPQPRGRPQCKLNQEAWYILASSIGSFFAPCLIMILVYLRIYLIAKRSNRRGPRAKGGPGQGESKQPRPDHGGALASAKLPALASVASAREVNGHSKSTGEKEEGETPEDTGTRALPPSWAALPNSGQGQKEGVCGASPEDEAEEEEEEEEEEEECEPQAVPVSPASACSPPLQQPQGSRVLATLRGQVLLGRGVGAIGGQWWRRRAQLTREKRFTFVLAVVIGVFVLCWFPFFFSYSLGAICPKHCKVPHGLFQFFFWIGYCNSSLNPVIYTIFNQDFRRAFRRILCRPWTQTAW

Compound `Cc1c(C(=O)NN2CCCCC2)nn(-c2ccc(Cl)cc2Cl)c1-c1ccc(Cl)cc1` [RIMONABANT] returned an inhibitory constant (Ki) in assay [1] of more than 10 µM.

With `Cc1c(C(=O)NC2(C#N)CCOCC2)nn(-c2ccccc2Br)c1-c1ccccc1`, the Ki in assay [1] was more than 10 µM.

On to `COc1ccc(-c2c(C)c(C(=O)NC3(C#N)CCOCC3)nn2-c2cccc(Br)c2)cc1`, for which the Ki is 0.68 µM on Cannabinoid receptor 1, 0.234 µM on Cannabinoid receptor 2 and more than 10 µM in [1].

Turning to `COc1ccc(-c2c(C)c(C(=O)NC3(C#N)CCCCC3)nn2-c2ccccc2Br)cc1`, the Ki on Cannabinoid receptor 1 was 0.0157 µM; on Cannabinoid receptor 2, 2.75 µM; in [1], more than 10 µM; in assay [2], more than 10 µM; on D(1B) dopamine receptor it was more than 10 µM; in assay [3], 0.597 µM. Further, the affinity on Translocator protein, expressed as Ki, was 0.279 µM. Moreover, the inhibition in assay [4], in assay [5], in [6], in assay [7], in assay [8] and in assay [9] was less than 50% in each case. For the same compound, the inhibition in assay [10], in assay [11], in [12], in [13], in assay [14] and in assay [15] was less than 50% each time. The inhibition in [16], in assay [17], in [18], in [19], in [20] and in assay [21] was less than 50% throughout. For the same compound, the inhibition in assay [22], in assay [23], in assay [24], in assay [25], in [26] and in [27] was less than 50% each time. In addition, the inhibition in assay [28], in [29], in [30], in assay [31], in assay [32] and in [33] was less than 50% in each case. The inhibition in assay [34], in assay [35], in [36], in [37], in assay [38] and in assay [39] was less than 50% throughout. For the same compound, the inhibition in assay [40], in [41] and in assay [42] was less than 50% each time.

For the compound `CCC(C)N(C)C(=O)c1cc2ccccc2c(-c2ccccc2Cl)n1` (stereo not drawn) [PK-11195], in assay [1], the inhibition constant (Ki) is more than 10 µM.

Consider `N#Cc1c(C(=O)NC2(C#N)CCOCC2)nn(-c2ccccc2Br)c1-c1ccccc1`, for which the inhibition constant (Ki) on Cannabinoid receptor 1 was 0.437 µM; on Cannabinoid receptor 2, more than 10 µM; in assay [1] it was more than 10 µM; at Translocator protein, 3.69 µM.

Regarding `Cc1c(C(=O)NC2(C#N)CCOCC2)nn(-c2ccccc2I)c1-c1ccccc1`, the Ki in assay [1] is more than 10 µM.

In the case of `Cc1c(C(=O)NC2(C#N)CCOCC2)nn(-c2ccc(Br)cc2)c1-c1ccccc1`, the Ki was 0.259 µM at Cannabinoid receptor 1, 0.655 µM at Cannabinoid receptor 2 and more than 10 µM in assay [1].

For the compound `Cc1c(C(=O)NC2(C#N)CCOCC2)nn(-c2ccccc2Br)c1-c1cccc(F)c1`, the inhibition constant Ki (at Cannabinoid receptor 1; on Cannabinoid receptor 2; in assay [1]) was more than 10 µM each time.

In the case of `Cc1c(C(=O)NC2(C#N)CCOCC2)nn(-c2cccc(Br)c2)c1-c1ccccc1`, the Ki in assay [1] is more than 10 µM.

Turning to `COc1ccc(-c2c(C)c(C(=O)NC3(C#N)CCOCC3)nn2-c2ccccc2F)cc1`, the inhibition constant (Ki) at Cannabinoid receptor 1 was 0.115 µM; at Cannabinoid receptor 2, 2.46 µM; in assay [1], more than 10 µM.

As to `N#CC1(NC(=O)c2cc(-c3ccccc3)n(-c3ccccc3Br)n2)CCOCC1`, the Ki on Cannabinoid receptor 1 is 0.297 µM; on Cannabinoid receptor 2, more than 10 µM; in [1], more than 10 µM; on Translocator protein it was 3.11 µM.

In assay [1], `Cc1c(C(=O)NC2(C#N)CCOCC2)nn(-c2ccccc2-c2ccccc2)c1-c1ccccc1` had a Ki of more than 10 µM.

In turn, `Cc1c(C(=O)NC2(C#N)CCOCC2)nn(-c2ccccc2Br)c1-c1ccc(F)cc1` came in with a Ki in [1] of more than 10 µM.

Regarding `Cc1c(C(=O)NC2(C#N)CCOCC2)nn(-c2ccccc2Cl)c1-c1ccccc1`, the inhibitory constant (Ki) on Cannabinoid receptor 1 is more than 10 µM; at Cannabinoid receptor 2, more than 10 µM; in assay [1], more than 10 µM; at Translocator protein, 0.436 µM.

The compound `Cc1c(C(=O)NC2(C#N)CCCCC2)nn(-c2ccccc2Br)c1-c1ccccc1` returned a Ki in assay [1] of more than 10 µM.

`COc1ccc(-c2c(C#N)c(C(=O)NC3(C#N)CCOCC3)nn2-c2ccccc2I)cc1`: the Ki is more than 10 µM at Cannabinoid receptor 1, 2.37 µM at Cannabinoid receptor 2, more than 10 µM in [1] and 1.92 µM at Translocator protein.

Turning to `Cc1c(C(=O)N(C)C2(C#N)CCOCC2)nn(-c2ccccc2Cl)c1-c1ccccc1`, the inhibition constant Ki is more than 10 µM on Cannabinoid receptor 1, more than 10 µM on Cannabinoid receptor 2, more than 10 µM in [1] and 0.88 µM at Translocator protein.

Regarding `Cc1c(C(=O)NC2(C#N)CCOCC2)nn(-c2ccccc2F)c1-c1ccccc1`, the Ki in assay [1] is more than 10 µM.

`COc1ccc(-c2c(Br)c(C(=O)NC3(C#N)CCOCC3)nn2-c2cccc(Br)c2)cc1`: the Ki in assay [1] is more than 10 µM.
